Several values for one entry are separate records, joined by “and”; a condition that tells them apart may be missing. Equal values may be shown once. Read-outs that look alike come from different tables or passages of the source.
Assays:
[1] = tested on: gastric mucosa; settings: rat, in vivo
Experimental: For this reason this compound has not been included in further in vivo experimentation. However, the other two compounds were well tolerated and satisfactory low acute toxicity values were found (approximately 500 mg/kg for both substances).

[2] = tested on: rat platelet aggregation; assay: In vitro inhibition of rat platelet aggregation (Born and Cross method); format: cell-based; settings: Rattus norvegicus, Platelet, rat plasma, read-out: Platelet Aggregation Inhibition (PAI); for inhibition at 8300 µM: plasma concentration 8.30×10^-3 molar; for inhibition at 4150 µM: plasma concentration 4.15×10^-3 molar
Experimental: Platelet aggregation was measured according to the method of Born and Cross (8) by using rat and human plasma.

[3] = tested on: human platelet aggregation; assay: In vitro inhibition of human platelet aggregation (Born and Cross method); format: cell-based; settings: read-out: Platelet Aggregation Inhibition (PAI); for inhibition at 6250 µM: plasma concentration 6.25×10^-3 molar; for inhibition at 8300 µM: plasma concentration 8.30×10^-3 molar; for inhibition at 17000 µM: plasma concentration 17.0×10^-3 molar
Experimental: Platelet aggregation was measured according to the method of Born and Cross (8) by using rat and human plasma. The results are summarized below in Tables I and II.
Key : PC = Plasma Concentration: PAI = Platelet Aggregation
*The percent of inhibition was calculated using the method described by
McKenzie (Proc. Soc. Exp. Biol. Med. 137: 662, 1971).

[4] = tested on: human platelet aggregation; assay: Human platelet aggregation induced by collagen after oral administration to humans; format: in vivo; settings: collagen 33.3 μg/m, one value per human
Experimental: The significance of the parameters employed in Table IV (x, y and delay) is indicated; and
(§1) In the in vivo tests on humans, the two selected compounds were administered per os during six consecutive days at equimolar doses: 200 mg three times a day of 2-acetoxy-4-trifluoromethylbenzoic acid and 248 mg three times a day of 2-phosphonoxy-4-trifluoromethylbenzoic acid.
(§2) Blood was collected on the first, fourth and seventh day of the test and the platelet aggregation induced by ADP, epinephrine and collagen was determined according to the above-mentioned Born method.
(§3) EFFECT OF 2-ACETOXY-4-TRIFLUOROMETHYLBENZOIC ACID
(§4) AND 2-PHOSPHONOXY-4-TRIFLUOROMETHYLBENZOIC
ACID ON PLATELET AGGREGATION INDUCED BY
COLLAGEN AFTER ORAL ADMINISTRATION TO HUMANS*.
*An increase of delay time and x and a decrease of y with respect to
control indicate an inhibitory effect on platelet aggregation (see FIG.

[5] = tested on: human platelet aggregation; assay: Human platelet aggregation induced by ADP and epinephrine after oral administration to humans; format: in vivo; settings: Tables III and IV
Experimental: as §1, §2, §3, §4
ACID ON PLATELET AGGREGATION INDUCED BY ADP AND
EPINEPHRINE AFTER ORAL ADMINISTRATION TO HUMANS*
*The figures express the concentration (μM) that produces irreversible

[6] = tested on: blood coagulation factors and fibrinolysis; format: in vivo, human; settings: oral; for Euglobin lysis time: Von Kaulas's test / Activated kaolin test / Activated partial thromboplastin test: APTI / Howell's test / Plasma prothrombine test: Quick test / Serum prothrombin time / Bleeding time, Duke test / Clotting time / Thromboelastogram K / Thromboelastogram r: mean ± s.e.m.; for Euglobin lysis time: Von Kaulas's test: decrease vs control = drug effect; for Activated kaolin test / Activated partial thromboplastin test: APTI / Howell's test / Plasma prothrombine test: Quick test / Serum prothrombin time: decrease vs control = inhibitory effect; for Bleeding time, Duke test / Clotting time / Thromboelastogram K / Thromboelastogram r: increase vs control = inhibitory effect
Experimental: The values r and k (in parameter 15 of Table V) correspond to blood (b). Their significance appears from the Figure.
as §1, §2
The potential anticoagulant and fibrinolytic activity of the claimed compounds has therefore likewise been investigated. For this purpose, with the same blood samples used for the determination of in vivo antiaggregating action on humans, the following parameters were examined: clotting time, bleeding time (Duke test), tourniquet test, Parrot's test, plasma prothrombine test (Quick test), activated partial thromboplastin test (APTT), activated Kaolin test, Howell's test, serum prothrombin time, euglobulin lysis time, Von Kaula's test, degradation products of fibrinogen (DPF), platelet count, clot retraction, hematocrit and thromboelastogram.
EFFECT OF 2-ACETOXY-4-TRIFLUOROMETHYLBENZOIC ACID AND 2-PHOSPHONOXY-4-TRIF
ZOIC ACID ON BLOOD COAGULATION FACTORS AND FIBRINOLYSIS*.
treated with 2-acetoxy-4-trifluoromethylbenzoic acid and on 6 humans
treated with 2-phos phonoxy-4-trifluoromethylbenzoic acid. An increase of
the mean values (±s.e.m.) of parameters 1 and 2 or a decrease of
parameters 5,6,7,8,9,10 and 11 with respect to control, mean an inhibitor
effec of drugs on the blood coagulation and fibrinolysis.
**An increase of r and k values with respect to control, indicates an
inhibitory effect of the drugs on blood coagulation and also on platelet
aggregation. These figures are indicated in FIG. 2 which corresponds to a
normal thromboelastogram.

[7] = 4th day, increase vs control = inhibition

Structure (SMILES): O=C(O)c1ccc(C(F)(F)F)cc1O [2-hydroxy-4-trifluoromethylbenzoic acid]
- gastro-intestinal disturbances (in words) [1]: high incidence of serious gastro-intestinal disturbances, including bleeding of the gastric mucosa and peptic ulcers
- inhibition at 6250 µM ([2]; ADP 4.1×10^-6 M, plasma concentration 6.25×10^-3 molar): 60.2%
- inhibition at 8300 µM ([2]; ADP 4.1×10^-6 M): 89.2%
- inhibition at 4150 µM ([2]; Collagen 33.3 μg/ml): 27.2%
- inhibition at 8300 µM ([2]; Collagen 33.3 μg/ml): 48.3%
- inhibition at 6250 µM ([3]; ADP 1.6×10^-6 M): 70%
- inhibition at 8300 µM ([3]; ADP 1.6×10^-6 M): 100%
- inhibition at 8300 µM ([3]; Collagen 33.3 mcg/ml): 58%
- inhibition at 17000 µM ([3]; Collagen 33.3 mcg/ml): 75%
- inhibition at 3300 µM ([3]; Epinephrine 1.4×10^-6 M, plasma concentration 3.30×10^-3 molar): 32%
- inhibition at 8100 µM ([3]; Epinephrine 1.4×10^-6 M, plasma concentration 8.10×10^-3 molar): 91%

Structure (SMILES): CC(=O)Oc1cc(C(F)(F)F)ccc1C(=O)O [2-acetoxy-4-trifluoromethylbenzoic acid]
- y (collagen-induced aggregation curve) ([4]; 4th day, decrease vs control = inhibition): 41 mm and 45 mm
- delay (collagen-induced aggregation curve) [4, 7]: 60 xc and 72 xc
- x (collagen-induced aggregation curve) [4, 7]: 22 mm and 24 mm and 17 mm and 25 mm
- delay (collagen-induced aggregation curve) ([4]; 7th day, increase vs control = inhibition): 108 xc and 60 xc and 96 xc and 72 xc and 84 xc
- in vivo action on human platelet aggregation (in words) [5]: far more effective compound
- inhibition at 830 µM ([2]; ADP 4.1×10^-6 M, plasma concentration 0.83×10^-3 molar): 26%
- inhibition at 2080 µM ([2]; ADP 4.1×10^-6 M, plasma concentration 2.08×10^-3 molar): 37.5%
- inhibition at 4150 µM ([2]; ADP 4.1×10^-6 M): 51.9%
- inhibition at 8300 µM ([2]; ADP 4.1×10^-6 M): 93.7%
- inhibition at 4150 µM ([2]; Collagen 33.3 μg/ml): 34.5%
- inhibition at 8300 µM ([2]; Collagen 33.3 μg/ml): 52.7%
- inhibition at 6250 µM ([3]; ADP 1.6×10^-6 M): 22.5%
- inhibition at 8300 µM ([3]; ADP 1.6×10^-6 M): 38.6%
- inhibition at 4100 µM ([3]; Collagen 33.3 mcg/ml, plasma concentration 4.10×10^-3 molar): 37.5%
- inhibition at 8300 µM ([3]; Collagen 33.3 mcg/ml): 62%
- inhibition at 17000 µM ([3]; Epinephrine 1.4×10^-6 M): 74%
- Euglobin lysis time: Von Kaulas's test ([6]; 4th day): 140.0 ± 12.3 min
- Activated kaolin test ([6]; 4th day): 0.797±0.03
- Activated partial thromboplastin test: APTI ([6]; 4th day): 0.720±0.03
- Howell's test ([6]; 4th day): 0.723±0.04
- Plasma prothrombine test: Quick test ([6]; 4th day): 0.938±0.02
- Serum prothrombin time ([6]; 4th day): 38.8 ± 2.7 s
- Bleeding time, Duke test ([6]; 4th day): 133.0 ± 19.3 s
- Clotting time ([6]; 4th day): 521.6 ± 29.7 s
- Thromboelastogram K ([6]; 4th day): 24.6±1.6 cm
- Thromboelastogram r ([6]; 4th day): 19.6±1.2 cm
- Euglobin lysis time: Von Kaulas's test ([6]; 7th day): 136.1 ± 11.5 min
- Activated kaolin test ([6]; 7th day): 0.890±0.02
- Activated partial thromboplastin test: APTI ([6]; 7th day): 0.890±0.03
- Howell's test ([6]; 7th day): 0.807±0.04
- Plasma prothrombine test: Quick test ([6]; 7th day): 0.933±0.02
- Serum prothrombin time ([6]; 7th day): 37.3 ± 3.9 s
- Bleeding time, Duke test ([6]; 7th day): 116.0 ± 13.8 s
- Clotting time ([6]; 7th day): 526.6 ± 25.6 s
- Thromboelastogram K ([6]; 7th day): 22.1±1.5 cm
- Thromboelastogram r ([6]; 7th day): 21.6±3.6 cm
- anticoagulant action (in words) ([6]; humans): exert an anticoagulant action
- blood fibrinolytic activity (in words) ([6]; humans): increase of the blood fibrinolytic activity
- Clot retraction ([6]; days not separated): NEGATIVE
- Degradation products of fibrinogen: DPF ([6]; days not separated): NEGATIVE
- Parrot's test ([6]; days not separated): POSITIVE IN TWO HUMANS
- Tourniquet test ([6]; days not separated): NEGATIVE
